Data as given in patent US7351858B2, “Ortho-substituted benzoic acid derivatives for the treatment of insulin resistance” (AstraZeneca AB, priority 2002, dated 2008).

Biological target: T1, human PPAR alpha (Homo sapiens, UniProt Q07869)
T1 construct: expressed in transfected cells; host or cells: U2-OS (human osteogenic sarcoma), transient electroporation of a pSG5-based expression vector
T1 sequence (Q07869 239-466 limits assumed): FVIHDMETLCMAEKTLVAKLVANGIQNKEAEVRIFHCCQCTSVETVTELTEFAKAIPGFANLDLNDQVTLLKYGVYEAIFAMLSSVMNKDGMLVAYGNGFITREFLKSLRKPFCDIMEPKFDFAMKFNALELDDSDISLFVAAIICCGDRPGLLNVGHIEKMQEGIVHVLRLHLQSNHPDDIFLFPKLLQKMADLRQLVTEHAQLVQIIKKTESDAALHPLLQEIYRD
Assay: GAL4-PPARα ligand binding domain luciferase reporter transactivation assay in transiently transfected U2-OS cells
Format: cell-based
Conditions: about 24 hours exposure, concentration giving 50% of maximal activation by reference compound ETYA
Procedure: U2-OS, (Osteogenic sarcoma, Human) was purchased from ATCC, USA. Cells were expanded and refrozen in batches from passage number six. Cells were cultured in Dulbecco's modified Eagle medium (DMEM) with 25 mM glucose, 2 mM glutamine or 4 mM L-alanyl-L-glutamine, 10% fetal calf serum, at 5% CO2. Phosphate buffered saline (PBS) without addition of calcium or magnesium was used. All cell culture reagents were from Gibco (USA) and 96-well cell culture plates were purchased from Wallach.
Standard recombinant DNA techniques were carried out as described by Ausubel (7). The Luciferase reporter vector, pGL5UAS (clone consists of five copies of the GAL4 DNA binding sequence, 5′-[…]-3′, cloned into the SacI/XhoI sites of pGL3-Promoter (Promega). The SacI/XhoI fragment carrying the UAS sites was constructed using annealed overlapping oligonucleotides.
Expression vectors used are based upon pSG5 (Stratagene). All vectors contain an EcoRI/NheI fragment encoding the DNA binding domain of GAL4 (encoding amino acid positions 1-145 of database accession number P04386) followed by an in-frame fusion to a fragment encoding the nuclear localisation sequence from T antigen of Polyoma Virus. […]
After adjustment of the amount of cell medium to 75 μl in each well, 50 μl test compound solution was added. […] After lysis, luciferase activity was measured in a 1420 Multiwell counter, Victor, from Wallach. […]

Compound | EC50
CCN(Cc1ccc(C(F)(F)F)cc1)C(=O)COc1ccc(CCOc2ccccc2C(=O)O)cc1 [Example 5, 2-[2-(4-{2-[Ethyl(4-trifluoromethylbenzyl)amino]-2-oxoethoxy}phenyl)ethoxy]benzoic acid] | 48 nM
CCN(Cc1ccc(Cl)cc1)C(=O)COc1ccc(CCSc2ccccc2C(=O)O)cc1 [Example 3, 2-{[2-(4-{2-[(4-chlorobenzyl)(ethyl)amino]-2-oxoethoxy}phenyl)ethyl]thio}benzoic acid] | 499 nM
